Here are results for 17 molecules from patent US9580418B2, “Bicyclic aromatic carboxamide compounds useful as Pim kinase inhibitors” (Incyte Corporation, priority 2014, dated 2017).

A value given as a limit tells only on which side of the number the result lay.

The target of one experiment is Pim-1 (Homo sapiens (Human), UniProt P11309). As to the kind of experiment: Pim-1 kinase assay (Pim enzyme assays, Example A). The conditions noted are these: 1 mM ATP, BAD peptide substrate; read-out: PIM1 IC50. Type of experiment: biochemical. As for the experimental part: (§1) Pim-1 and Pim-3 kinase assays-20 μL reactions were run in white 384 well polystyrene plates dotted with 0.8 μL compound/DMSO in the assay buffer (50 mM Tris, pH 7.5, 0.01% Tween-20, 5 mM mgCl2, 0.01% BSA, 5 mM DTT), containing 0.05 μM Biotin-labeled BAD peptide substrate (AnaSpec 62269), 1 mM ATP, and 2.5 pM (Pim-1, Invitrogen PV3503) or 1.25 pM (Pim-3, Millipore 14-738) enzyme for 1 h at 25° C. Reactions were stopped by addition of 10 μL STOP Buffer (150 mM Tris, pH=7.5, 150 mM NaCl, 75 mM EDTA, 0.01% Tween-20, 0.3% BSA,) supplemented with Phospho-Bad (Ser112) Antibody (Cell Signaling 9291) diluted 666-fold, and Streptavidin donor beads (PerkinElmer 6760002) along with Protein-A acceptor beads (PerkinElmer 6760137) at 15 μg/mL each. Supplementation of the STOP buffer with beads and stopping the reactions were done under reduced light. Prior to the stopping reactions STOP buffer with beads was preincubated for 1 h in the dark at room temperature. After stopping the reactions, plates were incubated for 1 h in the dark at room temperature before reading on a PHERAstar FS plate reader (BMG Labtech) under reduced light.
Sequence of Pim-1 (P11309 whole entry): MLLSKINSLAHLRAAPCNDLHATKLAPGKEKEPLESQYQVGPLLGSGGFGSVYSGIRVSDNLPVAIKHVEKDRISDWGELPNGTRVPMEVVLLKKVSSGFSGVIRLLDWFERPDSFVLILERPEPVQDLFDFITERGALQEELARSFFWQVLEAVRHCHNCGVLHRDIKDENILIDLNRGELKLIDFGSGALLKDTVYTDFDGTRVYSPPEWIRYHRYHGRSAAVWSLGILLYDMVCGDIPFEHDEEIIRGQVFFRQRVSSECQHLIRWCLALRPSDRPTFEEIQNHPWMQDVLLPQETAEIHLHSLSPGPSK

Another experiment concerns the target Pim-2 (Homo sapiens (Human), UniProt Q9P1W9). As to the kind of experiment: Pim-2 kinase assay (Pim enzyme assays, Example A). The class given is biochemical. Conditions: 1 mM ATP, CREBtide peptide substrate; read-out: PIM2 IC50. As for the experimental part:
Pim-2 kinase assay-20 μL reactions were run in white 384 well polystyrene plates dotted with 0.8 μL compound/DMSO in the assay buffer (50 mM Tris, pH 7.5, 0.01% Tween-20, 5 mM mgCl2, 0.01% BSA, 5 mM DTT), containing 0.05 μM Fluorescein-labeled CREBtide peptide substrate (Invitrogen PV3508), 1 mM ATP, and 1 nM enzyme (Invitrogen PV3649) for 2 h at 25° C. Reactions were stopped by addition of 10 μL TR-FRET Dilution Buffer (Invitrogen PV3574) with 30 mM EDTA and 1.5 nM LanthaScreen Tb-CREB pSer133 antibody (Invitrogen PV3566). After 30 min. incubation at room temperature, plates were read on a PHERAstar FS plate reader (BMG Labtech).

A further experiment deals with Pim-3 (Homo sapiens (Human), UniProt Q86V86). As to the kind of experiment: Pim-3 kinase assay (Pim enzyme assays, Example A). The class given is biochemical. The conditions noted are these: 1 mM ATP, BAD peptide substrate; read-out: PIM3 IC50. As for the experimental part: as §1
For the next experiment, the system named is pBAD in KMS.12.BM cells. As to the kind of experiment: Pim pBAD signaling assay in KMS.12.BM cells (Example B). Type of experiment: cell-based. Conditions: Homo sapiens, 2.5 h incubation, pBAD ELISA. As for the experimental part:
KG-1A cells are purchased from ATCC (Manassas, Va.) and KMS.12.BM cells are purchased from NIBIO, JCRB cell bank (Tokyo, Japan) and maintained in the culture mediums recommended, RPMI, 10% FBS and IMDM 20% FBS (Mediatech, Manassas, Va.) respectively. To measure the pBAD inhibitory activity of the compounds, both cell lines are plated with the culture medium (1×10^6/well/100 μL for KG1A and 4×10^5 cells/well/in 100 μL for KMS12BM) into 96-well V bottom polypropylene plates (Matrix, Thermo Fisher, USA) and incubated 30 min. at 37° C. to normalize cell signaling from handling. Test compounds are added at an appropriate concentration range and further incubated for 2.5 h for KMS.12.BM cells and 4 h for KG1-A cells. Plates are centrifuged at 2000 RPM for 10 min. and supernatants aspirated. 100 μL lysis buffer with protease inhibitors (Cell Signaling Technologies, Danver, Mass., Sigma, St Louis Mo., EMD, USA) is added to the pellets, mixed well and set on ice for 30 min. Lysates are frozen overnight at −80° C. To measure the pBAD activity, a Cell Signaling ELISA kit (Cell Signaling Path Scan phosphor pBAD ELISA) is utilized. 50 μL of the lysate is tested per the ELISA protocol and the data analysis is performed by software on a SpectrMax5 plate reader (Molecular Devices, Sunnyvale, Calif.). IC50 determination is performed by fitting the curve of percent inhibition versus the log of the inhibitor concentration using the GraphPad Prism 5.0 software.
(In an ELISA, binding on a coated surface is turned into a signal by an enzyme label.)

Sequence of Pim-2 (Q9P1W9 whole entry): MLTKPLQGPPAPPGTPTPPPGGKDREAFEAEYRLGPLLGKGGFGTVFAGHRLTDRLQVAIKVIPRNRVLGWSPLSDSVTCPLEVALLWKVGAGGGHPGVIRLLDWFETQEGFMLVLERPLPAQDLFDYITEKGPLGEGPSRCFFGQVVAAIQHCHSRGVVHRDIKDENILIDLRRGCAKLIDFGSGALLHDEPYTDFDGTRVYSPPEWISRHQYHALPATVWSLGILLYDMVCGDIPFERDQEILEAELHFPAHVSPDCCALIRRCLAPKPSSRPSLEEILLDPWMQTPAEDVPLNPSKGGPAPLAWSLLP

Turning to `C[C@@H]1C[C@H](N)CN(c2ccncc2NC(=O)c2ccc3ncc(-c4c(F)cccc4F)cc3n2)C1` [Example 1, N-{4-[(3S,5R)-3-Amino-5-methylpiperidin-1-yl]pyridin-3-yl}-7-(2,6-difluorophenyl)-1,5-naphthyridine-2-carboxamide], the IC50 (as a rule, the point on the concentration scale where inhibition reaches its midpoint) was not above 0.01 µM at Pim-1, not above 0.1 µM at Pim-2, not above 0.01 µM on Pim-3 and not above 0.05 µM in the experiment with pBAD in KMS.12.BM cells.

Regarding `CC(C)c1cnc2ccc(C(=O)Nc3cnccc3N3C[C@H](C)C[C@H](N)C3)nc2c1` [Example 2, N-{4-[(3S,5R)-3-Amino-5-methylpiperidin-1-yl]pyridin-3-yl}-7-isopropyl-1,5-naphthyridine-2-carboxamide], the concentration for half-maximal inhibition (IC50) was not above 0.01 µM on Pim-1, not above 0.1 µM on Pim-2, not above 0.01 µM on Pim-3 and not above 0.05 µM in the experiment with pBAD in KMS.12.BM cells.

On to `C[C@@H]1C[C@H](N)CN(c2ccncc2NC(=O)c2ccc3ncc(C4CCOCC4)cc3n2)C1` [Example 3, N-{4-[(3S,5R)-3-Amino-5-methylpiperidin-1-yl]pyridin-3-yl}-7-(tetrahydro-2H-pyran-4-yl)-1,5-naphthyridine-2-carboxamide], for which the IC50 on Pim-1 was not above 0.01 µM; at Pim-2, 0.1 to 1 µM; at Pim-3, not above 0.01 µM; in the experiment on pBAD in KMS.12.BM cells, not above 0.05 µM.

For `COc1cc(F)c(-c2cnc3ccc(C(=O)Nc4cnccc4N4C[C@H](C)C[C@H](N)C4)nc3c2)c(F)c1` [Example 4, N-{4-[(3S,5R)-3-Amino-5-methylpiperidin-1-yl]pyridin-3-yl}-7-(2,6-difluoro-4-methoxyphenyl)-1,5-naphthyridine-2-carboxamide], the 50% inhibitory concentration (IC50) is not above 0.01 µM at Pim-1, not above 0.1 µM at Pim-2, not above 0.01 µM on Pim-3 and not above 0.05 µM with pBAD in KMS.12.BM cells.

With `CCn1cc(-c2cnc3ccc(C(=O)Nc4cnccc4N4C[C@H](C)C[C@H](N)C4)nc3c2)cn1` [Example 5, N-{4-[(3S,5R)-3-Amino-5-methylpiperidin-1-yl]pyridin-3-yl}-7-(1-ethyl-1H-pyrazol-4-yl)-1,5-naphthyridine-2-carboxamide], the 50% inhibitory concentration (IC50) on Pim-1 is not above 0.01 µM; on Pim-2, 0.1 to 1 µM; at Pim-3 it was not above 0.01 µM; in the experiment on pBAD in KMS.12.BM cells, not above 0.05 µM.

Take `CC(C)c1cnc2ccc(C(=O)Nc3cnccc3N3C[C@@H](N)[C@H](O)[C@@H](C)C3)nc2c1` [Example 6]: the concentration for half-maximal inhibition (IC50) on Pim-1 is not above 0.01 µM; on Pim-2 it was not above 0.1 µM; at Pim-3 it was not above 0.01 µM; in the experiment with pBAD in KMS.12.BM cells, not above 0.05 µM.

With `COc1ccc(-c2cnc3ccc(C(=O)Nc4cnccc4N4C[C@@H](N)[C@H](O)[C@@H](C)C4)nc3c2)cn1` [Example 7, N-{4-[(3R,4R,5S)-3-Amino-4-hydroxy-5-methylpiperidin-1-yl]pyridin-3-yl}-7-(6-methoxypyridin-3-yl)-1,5-naphthyridine-2-carboxamide], the half-inhibitory concentration (IC50) is not above 0.01 µM at Pim-1, not above 0.1 µM on Pim-2, not above 0.01 µM at Pim-3 and not above 0.05 µM in the experiment on pBAD in KMS.12.BM cells.

With `C[C@H]1CN(c2ccncc2NC(=O)c2ccc3ncc(N4CCOCC4)cc3n2)C[C@@H](N)[C@@H]1O` [Example 8, N-{4-[(3R,4R,5S)-3-Amino-4-hydroxy-5-methylpiperidin-1-yl]pyridin-3-yl}-7-morpholin-4-yl-1,5-naphthyridine-2-carboxamide], the half-inhibitory concentration (IC50) on Pim-1 is not above 0.01 µM; on Pim-2, 0.1 to 1 µM; on Pim-3, not above 0.01 µM; with pBAD in KMS.12.BM cells it was not above 0.05 µM.

Turning to `CCc1ccc2ccc(C(=O)Nc3cnccc3N3C[C@@H](N)[C@H](O)[C@@H](C)C3)nc2c1` [Example 9, N-{4-[(3R,4R,5S)-3-Amino-4-hydroxy-5-methylpiperidin-1-yl]pyridin-3-yl}-7-ethylquinoline-2-carboxamide], the IC50 was not above 0.01 µM at Pim-1, 0.1 to 1 µM at Pim-2, not above 0.01 µM on Pim-3 and not above 0.05 µM with pBAD in KMS.12.BM cells.

On to `CC(C)c1ccc2ccc(C(=O)Nc3cnccc3N3C[C@@H](N)[C@H](O)[C@@H](C)C3)nc2c1` [Example 10, N-{4-[(3R,4R,5S)-3-Amino-4-hydroxy-5-methylpiperidin-1-yl]pyridin-3-yl}-7-isopropylquinoline-2-carboxamide], for which the IC50 on Pim-1 is not above 0.01 µM; on Pim-2, not above 0.1 µM; at Pim-3, not above 0.01 µM; in the experiment with pBAD in KMS.12.BM cells it was not above 0.05 µM.

On to `C[C@H]1CN(c2ccncc2NC(=O)c2ccc3ccc(C4CCOCC4)cc3n2)C[C@@H](N)[C@@H]1O` [Example 11, N-{4-[(3R,4R,5S)-3-Amino-4-hydroxy-5-methylpiperidin-1-yl]pyridin-3-yl}-7-(tetrahydro-2H-pyran-4-yl)quinoline-2-carboxamide], for which the half-inhibitory concentration (IC50) on Pim-1 was not above 0.01 µM; at Pim-2, 0.1 to 1 µM; at Pim-3 it was not above 0.01 µM; in the experiment with pBAD in KMS.12.BM cells it was 0.05 to 0.25 µM.

On to `C[C@H]1CN(c2ccncc2NC(=O)c2ccc3ccc(N4CCOCC4)cc3n2)C[C@@H](N)[C@@H]1O` [Example 12, N-{4-[(3R,4R,5S)-3-Amino-4-hydroxy-5-methylpiperidin-1-yl]pyridin-3-yl}-7-morpholin-4-ylquinoline-2-carboxamide], for which the IC50 on Pim-1 was not above 0.01 µM; on Pim-2, not above 0.1 µM; at Pim-3, not above 0.01 µM; in the experiment on pBAD in KMS.12.BM cells, not above 0.05 µM.

Regarding `C[C@H]1CN(c2ccncc2NC(=O)c2ccc3ccc(N4CCC(C(F)(F)F)C4)cc3n2)C[C@@H](N)[C@@H]1O` (stereo partly drawn) [Example 28, N-{4-[(3R,4R,5S)-3-Amino-4-hydroxy-5-methylpiperidin-1-yl]pyridin-3-yl}-7-[3-(trifluoromethyl)pyrrolidin-1-yl]quinoline-2-carboxamide], the IC50 on Pim-1 was not above 0.01 µM; on Pim-2 it was 0.1 to 1 µM; on Pim-3, not above 0.01 µM.

`C[C@@H]1C[C@H](N)CN(c2ccncc2NC(=O)c2ccc3ccc(N4CCC(C(F)(F)F)C4)cc3n2)C1` (stereo partly drawn) [Example 29, N-{4-[(3S,5R)-3-Amino-5-methylpiperidin-1-yl]pyridin-3-yl}-7-[3-(trifluoromethyl)pyrrolidin-1-yl]quinoline-2-carboxamide]: the half-inhibitory concentration (IC50) at Pim-1 is not above 0.01 µM; at Pim-2 it was 0.1 to 1 µM; at Pim-3 it was not above 0.01 µM.

Take `C[C@H]1CN(c2ccncc2NC(=O)c2ccc3ccc(N4CC(C)(C)C4)cc3n2)C[C@@H](N)[C@@H]1O` [Example 32, N-{4-[(3R,4R,5S)-3-Amino-4-hydroxy-5-methylpiperidin-1-yl]pyridin-3-yl}-7-(3,3-dimethylazetidin-1-yl)quinoline-2-carboxamide]: the IC50 at Pim-1 is not above 0.01 µM; at Pim-2, 0.1 to 1 µM; on Pim-3, not above 0.01 µM.

For the molecule `C[C@@H]1C[C@H](N)CN(c2ccncc2NC(=O)c2ccc3ccc(N4CC(C)(C)C4)cc3n2)C1` [Example 33, N-{4-[(3S,5R)-3-Amino-5-methylpiperidin-1-yl]pyridin-3-yl}-7-(3,3-dimethylazetidin-1-yl)quinoline-2-carboxamide], the IC50 on Pim-1 is not above 0.01 µM; at Pim-2, 1 to 10 µM; on Pim-3, not above 0.01 µM.

In the case of `N[C@@H]1CN(c2ccncc2NC(=O)c2ccc3ncc(N4CCC5(CCOCC5)CC4)cc3n2)C[C@H](C2CC2)[C@H]1O` [Example 40, N-{4-[(3R,4R,5S)-3-Amino-5-cyclopropyl-4-hydroxypiperidin-1-yl]pyridin-3-yl}-7-(3-oxa-9-azaspiro[5.5]undec-9-yl)-1,5-naphthyridine-2-carboxamide], the IC50 was not above 0.01 µM at Pim-1, 0.1 to 1 µM at Pim-2 and not above 0.01 µM at Pim-3.
